Assay results: patent US12162893B2 (Erasca, Inc., priority 2020, dated 2024)

Each compound was assayed against T1, mutant G12C K-RAS (Homo sapiens, UniProt P01116, G12C) (assay: covalent adduct formation (CAF) with mutant G12C K-RAS). Settings: Table 6; 10 μM, 1 h.
T1 construct: made in house; host or cells: E. coli BL21
Type: binding
Description: Embodiments disclosed herein are further illustrated by the following examples in Tables 1-4 and the Examples hereinbelow. The Tables indicate the compound number, structure, the observed mass spectral molecular weight peak, and covalent adduct formation (CAF) with a mutant G12C K-RAS after 60 minutes at a concentration of 10 micromolar.

SMILES | % CAF @ 10 μM,1 h [%]
C=CC(=O)N1C[C@H](C)N(c2nc(=O)n3c4c(c(-c5ccc(F)cc5F)c(Cl)cc24)OC[C@H]3CN2CCC2)C[C@H]1C [Example 233, (3R)-7-((2S,5R)-4-acryloyl-2,5-dimethylpiperazin-1-yl)-3-(azetidin-1-ylmethyl)-9-chloro-10-(2,4-difluorophenyl)-2H-[1,4]oxazino[2,3,4-ij]quinazolin-5(3H)-one] | 76
C=CC(=O)N1C[C@H](C)N(c2nc(=O)n3c4c(c(-c5ccc(F)cc5F)c(Cl)cc24)OC[C@H]3Cn2cccn2)C[C@H]1C [Example 234, (3R)-3-((1H-pyrazol-1-yl)methyl)-7-((2S,5R)-4-acryloyl-2,5-dimethylpiperazin-1-yl)-9-chloro-10-(2,4-difluorophenyl)-2H-[1,4]oxazino[2,3,4-ij]quinazolin-5(3H)-one] | 71.3
C=CC(=O)N1C[C@H](C)N(c2nc(=O)n3c4c(c(-c5ccc(F)cc5F)c(Cl)cc24)OC[C@H]3CN(C)CC(F)(F)F)C[C@H]1C [Example 235, (3R)-7-((2S,5R)-4-acryloyl-2,5-dimethylpiperazin-1-yl)-9-chloro-10-(2,4-difluorophenyl)-3-((methyl(2,2,2-trifluoroethyl)amino)methyl)-2H-[1,4]oxazino[2,3,4-ij]quinazolin-5(3H)-one] | 44.5
C=CC(=O)N1C[C@H](C)N(c2nc(=O)n3c4c(c(-c5ccc(F)cc5F)c(Cl)cc24)OC[C@@H]3CCCO)C[C@H]1C [Example 250, (3S)-7-((2S,5R)-4-acryloyl-2,5-dimethylpiperazin-1-yl)-9-chloro-10-(2,4-difluorophenyl)-3-(3-hydroxypropyl)-2,3-dihydro-5H-[1,4]oxazino[2,3,4-ij]quinazolin-5-one] | 70.1
C=CC(=O)N1C[C@H](C)N(c2nc(=O)n3c4c(c(-c5ccc(F)cc5F)c(Cl)cc24)OC[C@@H]3CCCN2[C@@H]3CC[C@H]2COC3)C[C@H]1C [Example 252, (3S)-3-(3-((1R,5S)-3-oxa-8-azabicyclo[3.2.1]octan-8-yl)propyl)-7-((2S,5R)-4-acryloyl-2,5-dimethylpiperazin-1-yl)-9-chloro-10-(2,4-difluorophenyl)-2H-[1,4]oxazino[2,3,4-ij]quinazolin-5(3H)-one] | 60.5
C=CC(=O)N1C[C@H](C)N(c2nc(=O)n3c4c(c(-c5ccc(F)cc5F)c(Cl)cc24)OC[C@H]3CCCN2CCS(=O)(=O)CC2)C[C@H]1C [Example 253, (3R)-7-((2S,5R)-4-acryloyl-2,5-dimethylpiperazin-1-yl)-9-chloro-10-(2,4-difluorophenyl)-3-(3-(1,1-dioxidothiomorpholino)propyl)-2,3-dihydro-5H-[1,4]oxazino[2,3,4-ij]quinazolin-5-one] | 87.6
C=CC(=O)N1C[C@H](C)N(c2nc(=O)n3c4c(c(-c5ccc(F)cc5F)c(Cl)cc24)OC[C@H]3CCCN2C3CCC2COC3)C[C@H]1C [Example 254, (3R)-3-(3-(3-oxa-8-azabicyclo[3.2.1]octan-8-yl)propyl)-7-((2S,5R)-4-acryloyl-2,5-dimethylpiperazin-1-yl)-9-chloro-10-(2,4-difluorophenyl)-2,3-dihydro-5H-[1,4]oxazino[2,3,4-ij]quinazolin-5-one] | 99.5
C=CC(=O)N1C[C@H](C)N(c2nc(=O)n3c4c(c(-c5ccc(F)cc5F)c(Cl)cc24)OC[C@@H]3CCCN2CCS(=O)(=O)CC2)C[C@H]1C [Example 255, (3S)-7-((2S,5R)-4-acryloyl-2,5-dimethylpiperazin-1-yl)-9-chloro-10-(2,4-difluorophenyl)-3-(3-(1,1-dioxidothiomorpholino)propyl)-2,3-dihydro-5H-[1,4]oxazino[2,3,4-ij]quinazolin-5-one] | 86.8
C=CC(=O)N1C[C@H](C)N(c2nc(=O)n3c4c(c(-c5ccc(F)cc5F)c(Cl)cc24)OC[C@H]3CN2CCN(C)CC2)C[C@H]1C [Example 256, (3R)-7-((2S,5R)-4-acryloyl-2,5-dimethylpiperazin-1-yl)-9-chloro-10-(2,4-difluorophenyl)-3-((4-methylpiperazin-1-yl)methyl)-2H-[1,4]oxazino[2,3,4-ij]quinazolin-5(3H)-one] | 80.1
C=CC(=O)N1C[C@H](C)N(c2nc(=O)n3c4c(c(-c5ccc(F)cc5F)c(Cl)cc24)O[C@H](CCCN2CCN(C)CC2)C3)C[C@H]1C [Example 260, (2R)-7-((2S,5R)-4-acryloyl-2,5-dimethylpiperazin-1-yl)-9-chloro-10-(2,4-difluorophenyl)-2-(3-(4-methylpiperazin-1-yl)propyl)-2,3-dihydro-5H-[1,4]oxazino[2,3,4-ij]quinazolin-5-one] | 48.4
C=CC(=O)N1C[C@H](C)N(c2nc(=O)n3c4c(c(-c5ccc(F)cc5F)c(Cl)cc24)O[C@H](CCCN2C4CCC2COC4)C3)C[C@H]1C [Example 261, (2R)-2-(3-(3-oxa-8-azabicyclo[3.2.1]octan-8-yl)propyl)-7-((2S,5R)-4-acryloyl-2,5-dimethylpiperazin-1-yl)-9-chloro-10-(2,4-difluorophenyl)-2,3-dihydro-5H-[1,4]oxazino[2,3,4-ij]quinazolin-5-one] | 21.1
C=CC(=O)N1C[C@H](C)N(c2nc(=O)n3c4c(c(-c5ccc(F)cc5F)c(Cl)cc24)O[C@@H](CCCN2C4CCC2COC4)C3)C[C@H]1C [Example 262, (2S)-2-(3-(3-oxa-8-azabicyclo[3.2.1]octan-8-yl)propyl)-7-((2S,5R)-4-acryloyl-2,5-dimethylpiperazin-1-yl)-9-chloro-10-(2,4-difluorophenyl)-2,3-dihydro-5H-[1,4]oxazino[2,3,4-ij]quinazolin-5-one] | 31.6

The remaining lines, values ahead:

% CAF @ 10 μM,1 h [%] | SMILES
60.9 | C=CC(=O)N1C[C@H](C)N(c2nc(=O)n3c4c(c(-c5ccc(F)cc5F)c(Cl)cc24)OC[C@@H]3Cn2cccn2)C[C@H]1C [Example 236, (3S)-3-((1H-pyrazol-1-yl)methyl)-7-((2S,5R)-4-acryloyl-2,5-dimethylpiperazin-1-yl)-9-chloro-10-(2,4-difluorophenyl)-2H-[1,4]oxazino[2,3,4-ij]quinazolin-5(3H)-one]
78.5 | C=CC(=O)N1C[C@H](C)N(c2nc(=O)n3c4c(c(-c5ccc(F)cc5F)c(Cl)cc24)OC[C@@H]3CN(C)CC(F)(F)F)C[C@H]1C [Example 237, (3S)-7-((2S,5R)-4-acryloyl-2,5-dimethylpiperazin-1-yl)-9-chloro-10-(2,4-difluorophenyl)-3-((methyl(2,2,2-trifluoroethyl)amino)methyl)-2H-[1,4]oxazino[2,3,4-ij]quinazolin-5(3H)-one]
79.4 | C=CC(=O)N1C[C@H](C)N(c2nc(=O)n3c4c(c(-c5ccc(F)cc5F)c(Cl)cc24)OC[C@@H]3Cn2ccnc2)C[C@H]1C [Example 238, (3S)-3-((1H-imidazol-1-yl)methyl)-7-((2S,5R)-4-acryloyl-2,5-dimethylpiperazin-1-yl)-9-chloro-10-(2,4-difluorophenyl)-2H-[1,4]oxazino[2,3,4-ij]quinazolin-5(3H)-one]
42.2 | C=CC(=O)N1C[C@H](C)N(c2nc(=O)n3c4c(c(-c5ccc(F)cc5F)c(Cl)cc24)O[C@@H](CCCO)C3)C[C@H]1C [Example 247, (2S)-7-((2S,5R)-4-acryloyl-2,5-dimethylpiperazin-1-yl)-9-chloro-10-(2,4-difluorophenyl)-2-(3-hydroxypropyl)-2,3-dihydro-5H-[1,4]oxazino[2,3,4-ij]quinazolin-5-one]
51.2 | C=CC(=O)N1C[C@H](C)N(c2nc(=O)n3c4c(c(-c5ccc(F)cc5F)c(Cl)cc24)O[C@H](CCCO)C3)C[C@H]1C [Example 249, (2R)-7-((2S,5R)-4-acryloyl-2,5-dimethylpiperazin-1-yl)-9-chloro-10-(2,4-difluorophenyl)-2-(3-hydroxypropyl)-2,3-dihydro-5H-[1,4]oxazino[2,3,4-ij]quinazolin-5-one]
85.3 | C=CC(=O)N1C[C@H](C)N(c2nc(=O)n3c4c(c(-c5ccc(F)cc5F)c(Cl)cc24)OC[C@H]3CCCO)C[C@H]1C [Example 251, (3R)-7-((2S,5R)-4-acryloyl-2,5-dimethylpiperazin-1-yl)-9-chloro-10-(2,4-difluorophenyl)-3-(3-hydroxypropyl)-2,3-dihydro-5H-[1,4]oxazino[2,3,4-ij]quinazolin-5-one]
94.8 | C=CC(=O)N1C[C@H](C)N(c2nc(=O)n3c4c(c(-c5ccc(F)cc5F)c(Cl)cc24)OC[C@@H]3CN2CCN(C)CC2)C[C@H]1C [Example 257, (3S)-7-((2S,5R)-4-acryloyl-2,5-dimethylpiperazin-1-yl)-9-chloro-10-(2,4-difluorophenyl)-3-((4-methylpiperazin-1-yl)methyl)-2H-[1,4]oxazino[2,3,4-ij]quinazolin-5(3H)-one]
17.7 | C=CC(=O)N1C[C@H](C)N(c2nc(=O)n3c4c(c(-c5ccc(F)cc5F)c(Cl)cc24)O[C@@H](CCCN2CCOCC2)C3)C[C@H]1C [Example 258, (2S)-7-((2S,5R)-4-acryloyl-2,5-dimethylpiperazin-1-yl)-9-chloro-10-(2,4-difluorophenyl)-2-(3-morpholinopropyl)-2,3-dihydro-5H-[1,4]oxazino[2,3,4-ij]quinazolin-5-one]
90.2 | C=CC(=O)N1C[C@H](C)N(c2nc(=O)n3c4c(c(-c5ccc(F)cc5F)c(Cl)cc24)OC[C@@H]3CCCN2CCN(C)CC2)C[C@H]1C [Example 259, (3S)-7-((2S,5R)-4-acryloyl-2,5-dimethylpiperazin-1-yl)-9-chloro-10-(2,4-difluorophenyl)-3-(3-(4-methylpiperazin-1-yl)propyl)-2,3-dihydro-5H-[1,4]oxazino[2,3,4-ij]quinazolin-5-one]
41.6 | C=CC(=O)N1C[C@H](C)N(c2nc(=O)n3c4c(c(-c5ccc(F)cc5F)c(Cl)cc24)O[C@@H](CCCN2CCN(C)CC2)C3)C[C@H]1C [Example 263, (2S)-7-((2S,5R)-4-acryloyl-2,5-dimethylpiperazin-1-yl)-9-chloro-10-(2,4-difluorophenyl)-2-(3-(4-methylpiperazin-1-yl)propyl)-2,3-dihydro-5H-[1,4]oxazino[2,3,4-ij]quinazolin-5-one]
